This is an account of results in patent US5705609A, “Decorin fragments inhibiting cell regulatory factors” (La Jolla Cancer Research Foundation, priority 1995, dated 1998).

The subject of one assay is CHO cells. The experiment in a line: [3H]thymidine incorporation (growth) in CHO cells. Conditions: TGFβ-1 at 5 ng/ml. The class given is cell-based. Here is the method: The ability of decorin to modulate the activity of TGFβ-1 was examined in [^3 H]thymidine incorporation assays. In one assay, an unamplified CHO cell line transfected only with pSV2dhfr (control cell line A in reference 1, called CHO cells here) was used. The cells were maintained in nucleoside-free alpha-modified minimal essential medium (e-MEM, GIBCO, Long Island, N.Y.) supplemented with 9% dialyzed fetal calf serum (dFCS) and [^3 H]thymidine incorporation was assayed as described (Cheifetz et al., Cell 48:409-415 (1987)). TGFβ-1 was added to the CHO cell cultures at 5 ng/ml. At this concentration, it induced a 50% increase of [^3 H]thymidine incorporation in these cells. Decorin or BSA was added to the medium at different concentrations. The data represent percent neutralization of the TGFβ-1-induced growth stimulation, i.e., [^3 H]thymidine incorporation, in the absence of either TGFβ-1 or decorin=0%, incorporation in the presence of TGFβ-1 but not decorin=100%. […] Decorin (.circle-solid.) BSA (.largecircle.).
This was shown by gel filtration of the DEAE-isolated decorin under dissociating conditions. […] The fractions were analyzed by SDS-PAGE, decorin ELISA and cell growth assays, all described above. […] Shown are the ability of the gel filtration fractions to affect [^3 H]-thymidine incorporation by the CHO cells and the concentration of decorin as determined by enzyme immunoassay. […]
In general terms: Dividing cells build labelled thymidine or BrdU into new DNA.

A further assay relates to Mv1Lu cells. Kind of assay: [3H]thymidine incorporation (growth) in Mv1Lu mink lung epithelial cells. The class given is cell-based. The following applies: TGFβ-1 at 0.5 ng/ml. Here is the method:
Assay was performed as in FIG. 4A, except that TGFβ-1 was added at 0.5 ng/ml. This concentration of TGFβ induces 50% reduction of [^3 H]-thymidine incorporation in the Mv1Lu cells. The data represent neutralization of TGFβ-induced growth inhibition; i.e., [^3 H]-thymidine incorporation in the presence of neither TGFβ or decorin=100%; incorporation in the presence of TGFβ but not decorin=0%. […] This was shown by gel filtration of the DEAE-isolated decorin under dissociating conditions. […] The fractions were analyzed by SDS-PAGE, decorin ELISA and cell growth assays, all described above. Three protein peaks were obtained. […] Shown are the ability of the gel filtration fractions to affect [^3 H]-thymidine incorporation by the CHO cells and the concentration of decorin as determined by enzyme immunoassay. Shown also (arrows) are the elution positions of molecular size markers: BSA, bovine serum albumin (Mr=66,000); CA, carbonic anhydrase (Mr=29,000); Cy, cytochrome c (Mr=12,400); AP, aprotinin (Mr=6,500); TGF, [^125 I]TGFβ-1 (Mr=25,000).

Turning to “TGFβ-1: commercially obtained transforming growth factor β-1”, the “increase of [3H]thymidine incorporation” value in the assay with CHO cells is listed as 50%. The “reduction of [3H]-thymidine incorporation” value in the assay with Mv1Lu cells is on record as 50%.
